Measured values taken from patent publication US8674109B2, “Pesticidal compositions” (Dow AgroSciences, LLC., priority 2009, dated 2014).

Assays:
Assay type in all cases: in vivo
[1] = test system: beet armyworm (BAW; Spodoptera exigua: Lepidoptera); assay: Insecticidal test for beet armyworm, 128-well diet tray assay
In short: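 Three to five second-instar larvae per well fed on artificial diet surface-treated with 50 μg/cm^2 compound (applied in 90:10 acetone-water, dried). Trays were held six days at 25 °C, 14:10 light-dark. Percent mortality was averaged across eight wells.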

[2] = test system: corn earworm (CEW; Helicoverpa zea: Lepidoptera); assay: Insecticidal test for corn earworm, 128-well diet tray assay
In short: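 Second-instar larvae, three to five per well, placed on artificial diet treated with 50 μg/cm^2 compound applied in 90:10 acetone-water and dried. Held six days at 25° C., 14:10 light-dark. Percent mortality scored per well and averaged over eight wells.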

[3] = test system: green peach aphid (Myzus persicae); assay: Insecticidal test for green peach aphid in foliar spray assay on cabbage seedlings
In short: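 Cabbage seedlings carrying 20-50 aphids (adults and nymphs) were sprayed to runoff with compound at 200 ppm in acetone/methanol diluted in 0.025% Tween 20, with four pots per treatment. After three days at about 25 °C and 40% RH, live aphids were counted. Percent control was Abbott-corrected against solvent-check plants.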

Compound	% Mortality BAW 50 μg/cm^2 [1]	% Mortality CEW 50 μg/cm^2 [2]	% Mortality GPA 200 ppm [3]
CCCCCCC(C)OC(=O)Nc1ccc(-c2ncn(-c3ccc(OC(F)(F)F)cc3)n2)cc1 (stereo not drawn) [Compound 102]	B (Less than 50)	B (Less than 50)	B (Less than 80)
CC(OC(=O)Nc1ccc(-c2ncn(-c3ccc(OC(F)(F)F)cc3)n2)cc1)C(C)(C)C (stereo not drawn) [Compound 103]	A (50-100)	B (Less than 50)	B (Less than 80)
COC(=O)Nc1ccc(-c2ncn(-c3ccc(OC(F)(F)F)cc3)n2)cc1 [Compound 104]	A (50-100)	A (50-100)	B (Less than 80)
O=C(Nc1ccc(-c2ncn(-c3ccc(OC(F)(F)F)cc3)n2)cc1)OCc1ccccc1 [Compound 105]	A (50-100)	A (50-100)	B (Less than 80)
O=C(Nc1ccc(-c2ncn(-c3ccc(OC(F)(F)F)cc3)n2)cc1)OC1Cc2ccccc2C1 [Compound 106]	B (Less than 50)	A (50-100)	B (Less than 80)
CC(Cc1ccccc1)OC(=O)Nc1ccc(-c2ncn(-c3ccc(OC(F)(F)F)cc3)n2)cc1 (stereo not drawn) [Compound 107]	A (50-100)	A (50-100)	B (Less than 80)
CC1(OC(=O)Nc2ccc(-c3ncn(-c4ccc(OC(F)(F)F)cc4)n3)cc2)Cc2ccccc2C1 [Compound 108]	B (Less than 50)	B (Less than 50)	B (Less than 80)
O=C(Nc1ccc(-c2ncn(-c3ccc(OC(F)(F)F)cc3)n2)cc1)OC1CCc2ccccc21 (stereo not drawn) [Compound 109]	B (Less than 50)	A (50-100)	B (Less than 80)
CC(OC(=O)Nc1ccc(-c2ncn(-c3ccc(OC(F)(F)F)cc3)n2)cc1)c1cccnc1 (stereo not drawn) [Compound 110]	A (50-100)	A (50-100)	B (Less than 80)
O=C(Nc1ccc(-c2ncn(-c3ccc(OC(F)(F)F)cc3)n2)cc1)OCc1c(Cl)cccc1Cl [Compound 111]	B (Less than 50)	A (50-100)	B (Less than 80)
N#CC(OC(=O)Nc1ccc(-c2ncn(-c3ccc(OC(F)(F)F)cc3)n2)cc1)c1ccccc1 (stereo not drawn) [Compound 112]	A (50-100)	A (50-100)	B (Less than 80)
CCC(CC)OC(=O)Nc1ccc(-c2ncn(-c3ccc(OC(F)(F)F)cc3)n2)cc1 [Compound 113]	A (50-100)	A (50-100)	B (Less than 80)
CC(OC(=O)Nc1ccc(-c2ncn(-c3ccc(OC(F)(F)F)cc3)n2)cc1)c1c(F)c(F)c(F)c(F)c1F (stereo not drawn) [Compound 114]	A (50-100)	B (Less than 50)	B (Less than 80)
CC(OC(=O)Nc1ccc(-c2ncn(-c3ccc(OC(F)(F)F)cc3)n2)cc1)c1ccc(C(F)(F)F)cc1C(F)(F)F (stereo not drawn) [Compound 115]	B (Less than 50)	B (Less than 50)	B (Less than 80)
CC(OC(=O)Nc1ccc(-c2ncn(-c3ccc(OC(F)(F)F)cc3)n2)cc1)c1ccc(-c2ccccc2)cc1 (stereo not drawn) [Compound 116]	B (Less than 50)	A (50-100)	B (Less than 80)
CC(OC(=O)Nc1ccc(-c2ncn(-c3ccc(OC(F)(F)F)cc3)n2)cc1)c1ccc(F)cn1 (stereo not drawn) [Compound 117]	A (50-100)	A (50-100)	B (Less than 80)
CC(OC(=O)Nc1ccc(-c2ncn(-c3ccc(OC(F)(F)F)cc3)n2)cc1)c1ccc(Cl)cn1 (stereo not drawn) [Compound 118]	A (50-100)	A (50-100)	B (Less than 80)
COc1ccc(C(C)OC(=O)Nc2ccc(-c3ncn(-c4ccc(OC(F)(F)F)cc4)n3)cc2)nc1 (stereo not drawn) [Compound 119]	A (50-100)	A (50-100)	B (Less than 80)
CC(OC(=O)Nc1ccc(-c2ncn(-c3ccc(OC(F)(F)F)cc3)n2)cc1)c1cccc(Cl)n1 (stereo not drawn) [Compound 120]	A (50-100)	A (50-100)	B (Less than 80)
Cc1cc(C)c(CCOC(=O)Nc2ccc(-c3ncn(-c4ccc(OC(F)(F)F)cc4)n3)cc2)c(C)c1 [Compound 121]	B (Less than 50)	A (50-100)	B (Less than 80)
